From patent US8895504B2, “Amylin derivatives” (priority 2008, dated 2014)
*1 amine or outer side, *2 acyl side, *3 side chain or, on linkers, in order; H or OH if unused. Where a SMILES comes first, the peptide text is derived from it. Bridges are numbered along the chain shown (N, C = ends). Side-chain parts run from the residue outwards. The star is where a group is joined. C20 diacid = O=C(O)CCCCCCCCCCCCCCCCCCC(=O)*; C18 diacid = O=C(O)CCCCCCCCCCCCCCCCC(=O)*; γGlu = O=C(O)[C@H](CCC(=O)[*:2])N[*:1]

These compounds were tested against T1, Amylin 3(a) receptor (human calcitonin receptor (CTa) and RAMP-3) (Homo sapiens, UniProt O60896+P30988) (assay: Luciferase assay (III), BHK Amylin 3(a)//CRE-luc cells). Conditions: BHK cells with Amylin 3(a) receptor and CRE luciferase reporter, 4 hours incubation; read-out: Potency Luciferase.
T1 construct: expressed in transfected cells; host or cells: BHK570 cells, stably transfected with a CRE-luciferase reporter
T1 sequence (O60896 24-148): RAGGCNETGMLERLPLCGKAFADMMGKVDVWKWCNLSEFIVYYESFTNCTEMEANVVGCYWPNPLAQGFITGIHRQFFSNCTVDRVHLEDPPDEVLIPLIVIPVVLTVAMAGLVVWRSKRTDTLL
T1 sequence (P30988 25-474): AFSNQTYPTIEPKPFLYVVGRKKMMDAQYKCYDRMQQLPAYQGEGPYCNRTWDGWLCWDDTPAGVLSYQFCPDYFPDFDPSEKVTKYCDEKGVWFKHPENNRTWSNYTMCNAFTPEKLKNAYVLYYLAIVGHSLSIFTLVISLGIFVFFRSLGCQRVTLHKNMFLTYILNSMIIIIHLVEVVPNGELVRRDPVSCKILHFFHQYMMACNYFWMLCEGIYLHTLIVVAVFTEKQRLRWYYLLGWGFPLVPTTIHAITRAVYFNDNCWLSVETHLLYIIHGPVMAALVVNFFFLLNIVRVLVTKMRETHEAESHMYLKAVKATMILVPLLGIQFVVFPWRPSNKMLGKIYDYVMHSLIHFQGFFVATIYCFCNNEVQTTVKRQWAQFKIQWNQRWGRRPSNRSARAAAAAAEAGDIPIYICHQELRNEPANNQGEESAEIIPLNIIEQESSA
Format: cell-based
In short: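 Read-out is CRE-driven luciferase luminescence, taken 30 min after LucLite addition at room temperature. Compounds were incubated 4 h at 37° C in assay medium (10% FBS, 10 mM Hepes, pH 7,4). The cell line is BHK570 co-transfected with human calcitonin receptor CTa and RAMP-3, seeded overnight before use.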

SMILES | EC50 [nM]
CC(C)C[C@H](NC(=O)[C@H](CCCNC(=N)N)NC(=O)[C@H](CCC(N)=O)NC(=O)[C@@H](NC(=O)[C@H](C)NC(=O)[C@@H]1CSSC[C@H](NC(=O)[C@H](CCC(=O)O)NC(=O)[C@H](CCCNC(=N)N)NC(=O)[C@H](CCC(=O)O)NC(=O)CC[C@H](NC(=O)CCCCCCCCCCCCCCCCCCC(=O)O)C(=O)O)C(=O)N[C@@H](CC(N)=O)C(=O)N[C@@H]([C@@H](C)O)C(=O)N[C@@H](C)C(=O)N[C@@H]([C@@H](C)O)C(=O)N1)[C@@H](C)O)C(=O)N[C@@H](C)C(=O)N[C@@H](CC(=O)O)C(=O)N[C@@H](Cc1ccccc1)C(=O)N[C@@H](CC(C)C)C(=O)N[C@@H](Cc1c[nH]cn1)C(=O)N[C@@H](Cc1c[nH]cn1)C(=O)N[C@@H](CO)C(=O)N[C@@H](CO)C(=O)N[C@@H](CC(N)=O)C(=O)N[C@@H](CC(N)=O)C(=O)N[C@@H](Cc1ccccc1)C(=O)NCC(=O)N[C@@H](C)C(=O)N1CCC[C@H]1C(=O)N[C@@H](CC(C)C)C(=O)N[C@@H](CO)C(=O)N[C@@H](CO)C(=O)N[C@H](C(=O)N[C@@H](CC(N)=O)C(=O)N[C@H](C(=O)NCC(=O)N[C@@H](CO)C(=O)N[C@@H](CC(N)=O)C(=O)N[C@H](C(=O)N[C@@H](Cc1ccc(O)cc1)C(N)=O)[C@@H](C)O)C(C)C)[C@@H](C)O [Example 42, N-alpha-[(S)-4-Carboxy-4-(19-carboxynonadecanoylamino)butyryl]-Glu-Arg-[Glu1,Asp14,His17,Ala25,Pro26,Ser28,Ser29]-pramlintide] ({C20 diacid-γGlu}-ERECNTATCATQRLADFLHHSSNNFGAPLSSTNVGSNTY-NH2; disulfide 4-9) | 0.6
CC[C@H](C)[C@H](NC(=O)[C@@H]1CCCN1C(=O)CNC(=O)[C@H](Cc1ccccc1)NC(=O)[C@H](CC(N)=O)NC(=O)[C@H](CC(N)=O)NC(=O)[C@H](CO)NC(=O)[C@H](CO)NC(=O)[C@H](Cc1c[nH]cn1)NC(=O)[C@H](Cc1c[nH]cn1)NC(=O)[C@H](CC(C)C)NC(=O)[C@H](Cc1ccccc1)NC(=O)[C@H](CC(N)=O)NC(=O)[C@H](C)NC(=O)[C@H](CC(C)C)NC(=O)[C@H](CCCNC(=N)N)NC(=O)[C@H](CCC(N)=O)NC(=O)[C@@H](NC(=O)[C@H](C)NC(=O)[C@@H]1CSSC[C@H](NC(=O)[C@H](CCCNC(=N)N)NC(=O)[C@H](Cc2c[nH]cn2)NC(=O)[C@H](Cc2c[nH]cn2)NC(=O)[C@H](CCC(=O)O)NC(=O)CC[C@H](NC(=O)CCCCCCCCCCCCCCCCCCC(=O)O)C(=O)O)C(=O)N[C@@H](CC(N)=O)C(=O)N[C@@H]([C@@H](C)O)C(=O)N[C@@H](C)C(=O)N[C@@H]([C@@H](C)O)C(=O)N1)[C@@H](C)O)C(=O)N[C@@H](CC(C)C)C(=O)N1CCC[C@H]1C(=O)N1CCC[C@H]1C(=O)N[C@H](C(=O)N[C@@H](CC(N)=O)C(=O)N[C@H](C(=O)NCC(=O)N[C@@H](CO)C(=O)N[C@@H](CC(N)=O)C(=O)N[C@H](C(=O)N[C@@H](Cc1ccc(O)cc1)C(N)=O)[C@@H](C)O)C(C)C)[C@@H](C)O [Example 67, N-alpha-[(S)-4-Carboxy-4-(19-carboxynonadecanoylamino)butyryl]-Glu-His-His-[Arg1,His17]-pramlintide] ({C20 diacid-γGlu}-EHHRCNTATCATQRLANFLHHSSNNFGPILPPTNVGSNTY-NH2; disulfide 5-10) | 0.1
CC[C@H](C)[C@H](NC(=O)[C@@H]1CCCN1C(=O)CNC(=O)[C@H](Cc1ccccc1)NC(=O)[C@H](CC(N)=O)NC(=O)[C@H](CC(=O)O)NC(=O)[C@H](CO)NC(=O)[C@H](CO)NC(=O)[C@H](Cc1c[nH]cn1)NC(=O)[C@H](Cc1c[nH]cn1)NC(=O)[C@H](CC(C)C)NC(=O)[C@H](Cc1ccccc1)NC(=O)[C@H](CC(N)=O)NC(=O)[C@H](C)NC(=O)[C@H](CC(C)C)NC(=O)[C@H](CCCNC(=N)N)NC(=O)[C@H](CCC(N)=O)NC(=O)[C@@H](NC(=O)[C@H](C)NC(=O)[C@@H]1CSSC[C@H](NC(=O)[C@@H](N)CCCCN)C(=O)N[C@@H](CCCCNC(=O)[C@H](CCC(=O)O)NC(=O)[C@H](CCC(=O)O)NC(=O)[C@H](CCC(=O)O)NC(=O)[C@H](CCC(=O)O)NC(=O)CCCCCCCCCCCCCCCCCCC(=O)O)C(=O)N[C@@H]([C@@H](C)O)C(=O)N[C@@H](C)C(=O)N[C@@H]([C@@H](C)O)C(=O)N1)[C@@H](C)O)C(=O)N[C@@H](CC(C)C)C(=O)N1CCC[C@H]1C(=O)N1CCC[C@H]1C(=O)N[C@H](C(=O)N[C@@H](CC(N)=O)C(=O)N[C@H](C(=O)NCC(=O)N[C@@H](CO)C(=O)N[C@@H](CC(N)=O)C(=O)N[C@H](C(=O)N[C@@H](Cc1ccc(O)cc1)C(N)=O)[C@@H](C)O)C(C)C)[C@@H](C)O [Example 4, N-epsilon3-(19-carboxynonadecanoyl-Glu-Glu-Glu-Glu)-[Lys3,His17,Asp21]-pramlintide] (H-KCK([Glu-Glu-Glu-Glu-C20 diacid])TATCATQRLANFLHHSSDNFGPILPPTNVGSNTY-NH2; disulfide 2-7) | 2
CC[C@H](C)[C@H](NC(=O)[C@@H]1CCCN1C(=O)CNC(=O)[C@H](Cc1ccccc1)NC(=O)[C@H](CC(N)=O)NC(=O)[C@H](CC(N)=O)NC(=O)[C@H](CO)NC(=O)[C@H](CO)NC(=O)[C@H](Cc1c[nH]cn1)NC(=O)[C@H](Cc1c[nH]cn1)NC(=O)[C@H](CC(C)C)NC(=O)[C@H](Cc1ccccc1)NC(=O)[C@H](CC(N)=O)NC(=O)[C@H](C)NC(=O)[C@H](CC(C)C)NC(=O)[C@H](CCCNC(=N)N)NC(=O)[C@H](CCC(N)=O)NC(=O)[C@@H](NC(=O)[C@H](C)NC(=O)[C@@H]1CSSC[C@H](NC(=O)[C@H](CCCNC(=N)N)NC(=O)[C@H](CCCCN)NC(=O)[C@H](CCC(=O)O)NC(=O)CCCCCCCCCCCCCCCCCCC(=O)O)C(=O)N[C@@H](CC(N)=O)C(=O)N[C@@H]([C@@H](C)O)C(=O)N[C@@H](C)C(=O)N[C@@H]([C@@H](C)O)C(=O)N1)[C@@H](C)O)C(=O)N[C@@H](CC(C)C)C(=O)N1CCC[C@H]1C(=O)N1CCC[C@H]1C(=O)N[C@H](C(=O)N[C@@H](CC(N)=O)C(=O)N[C@H](C(=O)NCC(=O)N[C@@H](CO)C(=O)N[C@@H](CC(N)=O)C(=O)N[C@H](C(=O)N[C@@H](Cc1ccc(O)cc1)C(N)=O)[C@@H](C)O)C(C)C)[C@@H](C)O [Example 8, N-alpha-[19-carboxynonadecanoyl]-Glu-Lys-[Arg1,His17]-pramlintide] ({C20 diacid}-EKRCNTATCATQRLANFLHHSSNNFGPILPPTNVGSNTY-NH2; disulfide 4-9) | 0.07
CC[C@H](C)[C@H](NC(=O)[C@@H]1CCCN1C(=O)CNC(=O)[C@H](Cc1ccccc1)NC(=O)[C@H](CC(N)=O)NC(=O)[C@H](CC(N)=O)NC(=O)[C@H](CO)NC(=O)[C@H](CO)NC(=O)[C@H](Cc1c[nH]cn1)NC(=O)[C@H](Cc1c[nH]cn1)NC(=O)[C@H](CC(C)C)NC(=O)[C@H](Cc1ccccc1)NC(=O)[C@H](CC(N)=O)NC(=O)[C@H](C)NC(=O)[C@H](CC(C)C)NC(=O)[C@H](CCCNC(=N)N)NC(=O)[C@H](CCC(N)=O)NC(=O)[C@@H](NC(=O)[C@H](C)NC(=O)[C@@H]1CSSC[C@H](NC(=O)[C@H](CCCNC(=N)N)NC(=O)[C@H](Cc2c[nH]cn2)NC(=O)[C@H](CCCNC(=N)N)NC(=O)CC[C@H](NC(=O)CCCCCCCCCCCCCCCCCCC(=O)O)C(=O)O)C(=O)N[C@@H](CC(N)=O)C(=O)N[C@@H]([C@@H](C)O)C(=O)N[C@@H](C)C(=O)N[C@@H]([C@@H](C)O)C(=O)N1)[C@@H](C)O)C(=O)N[C@@H](CC(C)C)C(=O)N1CCC[C@H]1C(=O)N1CCC[C@H]1C(=O)N[C@H](C(=O)N[C@@H](CC(N)=O)C(=O)N[C@H](C(=O)NCC(=O)N[C@@H](CO)C(=O)N[C@@H](CC(N)=O)C(=O)N[C@H](C(=O)N[C@@H](Cc1ccc(O)cc1)C(N)=O)[C@@H](C)O)C(C)C)[C@@H](C)O [Example 70, N-alpha-[(S)-4-Carboxy-4-(19-carboxynonadecanoylamino)butyryl]-Arg-His[Arg1,His17]-pramlintide] ({C20 diacid-γGlu}-RHRCNTATCATQRLANFLHHSSNNFGPILPPTNVGSNTY-NH2; disulfide 4-9) | 0.1
CC[C@H](C)[C@H](NC(=O)[C@@H]1CCCN1C(=O)CNC(=O)[C@H](Cc1ccccc1)NC(=O)[C@H](CC(N)=O)NC(=O)[C@H](CC(N)=O)NC(=O)[C@H](CO)NC(=O)[C@H](CO)NC(=O)[C@H](Cc1c[nH]cn1)NC(=O)[C@H](Cc1c[nH]cn1)NC(=O)[C@H](CC(C)C)NC(=O)[C@H](Cc1ccccc1)NC(=O)[C@H](CC(N)=O)NC(=O)[C@H](C)NC(=O)[C@H](CC(C)C)NC(=O)[C@H](CCCNC(=N)N)NC(=O)[C@H](CCC(N)=O)NC(=O)[C@@H](NC(=O)[C@H](C)NC(=O)[C@@H]1CSSC[C@H](NC(=O)[C@H](Cc2c[nH]cn2)NC(=O)CC[C@H](NC(=O)CCCCCCCCCCCCCCCCC(=O)O)C(=O)O)C(=O)N[C@@H](CC(N)=O)C(=O)N[C@@H]([C@@H](C)O)C(=O)N[C@@H](C)C(=O)N[C@@H]([C@@H](C)O)C(=O)N1)[C@@H](C)O)C(=O)N[C@@H](CC(C)C)C(=O)N1CCC[C@H]1C(=O)N1CCC[C@H]1C(=O)N[C@H](C(=O)N[C@@H](CC(N)=O)C(=O)N[C@H](C(=O)NCC(=O)N[C@@H](CO)C(=O)N[C@@H](CC(N)=O)C(=O)N[C@H](C(=O)N[C@@H](Cc1ccc(O)cc1)C(N)=O)[C@@H](C)O)C(C)C)[C@@H](C)O [Example 32, N-alpha-[(S)-4-Carboxy-4-(17-carboxyheptadecanoylamino)butyryl]-[His1,His17]-pramlintide] ({C18 diacid-γGlu}-HCNTATCATQRLANFLHHSSNNFGPILPPTNVGSNTY-NH2; disulfide 2-7) | 0.08
